pIC50: −log10 of the molar value. Read-outs that look alike come from different tables or passages of the source. Non-standard residues stand in square brackets, D forms with d. Residues, ends and D or L forms follow the SMILES beside them. 1Nal = N[C@@H](Cc1cccc2ccccc12)C(=O)O; d1Nal = N[C@H](Cc1cccc2ccccc12)C(=O)O; d2Nal = N[C@H](Cc1ccc2ccccc2c1)C(=O)O
Legend:
[1] = tested on: Weiser-Maples brown guinea pigs; assay: Inhibitory test of melanocyte-stimulating hormone in living body (test of suppressing pigmentation in brown guinea pigs); type: in vivo, guinea pig; set-up: key: ◯: positive pigmentation suppressing effect; X: no pigmentation suppressing effect; —: not tested; conditions: 50 mM in 50% ethanol-water applied to skin, UVB irradiation, ΔL* vs 50% ethanol
Protocol: Inhibitory test of melanocyte-stimulating hormone was carried out by repeating the application of each test compound on a guinea pig and irradiation with ultraviolet rays, followed by measuring the degree of coloring, as follows.
D-2-Nal-Arg-LeuNH2 (50 mM, dissolved in 50% ethanol-water) and D-Trp-Arg-LeuNH2 (50 mM, dissolved in 50% ethanol-water) were used, and 50% ethanol-water was used as the control.
Male Weiser-Maples brown guinea pigs (4 weeks old) were purchased from Tokyo Experimental Animal K.K. and used after pre-reared for 7 weeks.
The brown guinea pigs were individually fixed by means of a fixing instrument and shaved in a square shape of about 3 cm×3 cm on their back with the use of a pair of hair clippers “THRIVE MODEL 6000AD” (manufactured by Natsume Seisakusyo) and “Home Hair Clipper Ceramic ER722” (manufactured by National) and an electric shaver “Dual 1500AC/RC” (manufactured by BRAUN). The skin after shaved was wiped with a water-soaked absorbent cotton, and the moisture was removed with a paper towel “KIMWIPE” (manufactured by CRECIA).
The skin of the back of the shaven brown guinea pigs was wiped with an ethanol-soaked absorbent cotton, and the horny layer having an area of about 2 cm×2 cm was subjected to tape stripping five times with the use of an adhesive tape “Scotch 313D” (manufactured by 3M). […]

B16 melanoma cells = assay: Measurement of 50% inhibitory concentration of cAMP production (IC50) with 10 nM melanocyte-stimulating hormone; type: cell-based
Protocol: The 50% inhibitory concentration of cAMP production (IC50) according to the present invention regarding the compounds having a melanocyte-stimulating hormone (MSH) inhibitory activity is measured and defined as follows.
Namely, B16 melanoma cells are inoculated on a 12-well plate in such way that 1×10^4 cells are inoculated into 1 well, and cultured at 37° C. for 48 hours in the presence of 5% CO2. After the culturing, the wells are washed with 1 ml of a serum-free medium (serum-free D-MEM medium) per 1 well. Then, a serum-free medium containing 1 mM 3-isobutyl-1-methylxanthine, 10 nM melanocyte-stimulating hormone and a compound to be tested at a different concentration is added in an amount of 1 ml per 1 well, followed by incubation at 37° C. for 5 minutes. After the incubation, the medium is completely removed from the plate, 1 ml of ice-cooled 2.5% perchloric acid is exactly added thereto, and then the whole is incubated for 30 minutes under ice-cooling to extract cAMP from within the cells. After the incubation, the extract solution is neutralized by adding 4.2M potassium hydroxide solution in an amount of […] per 1 well.
The neutralized extract solution is centrifuged at 4° C. at 12,000 rpm for 10 minutes, and the amount of cAMP in the supernatant is quantitatively determined using “Biotrak cAMP EIA System” (manufactured by Amersham Pharmacia Biotech), as follows. By the way, all the operations are carried out at 5° C. or lower. First, cAMP authentic samples are prepared so as to be 0 to 3200 fM, and each sample is placed in an amount of 100 μl in a 96-well plate. Then, 200 μl of 0.05M acetate buffer (pH 5.8, containing 0.02% serum and 0.01% antiseptic agent) is placed in an NSB well (Non-specific Binding Well) and 100 μl in a blank well. In a sample well is placed 100 μl of a sample to be evaluated. In each of all the wells except for the blank well and the NSB well is added 100 μl of antiserum. The 96-well plate is capped, slowly shaken, and incubated at 3 to 5° C. for 2 hours. After the incubation, 50 μl of cAMP peroxidase is added to each of all the wells except for the blank well. The plate is capped and incubated at 3 to 5° C. for 1 hour. After the incubation, each of all the wells is washed four times with 400 μl in total of 0.01M phosphate buffer (pH 7.5, containing 0.05% “Tween 20”). The liquid remaining in the wells is removed by placing the plate in such manner that the opening parts of the wells face downward, and patting the plate on a paper.
To each of all the wells is added 150 μl of an enzyme substrate, and the plate is shaken at 15 to 30° C. for 1 hour. After the shaking, 100 μl of 1 M sulfuric acid is added to each well, and absorbance at 450 nm is measured. A calibration curve is prepared from the absorbance of the cAMP authentic samples and the amount of cAMP of each sample is determined.
The 50% inhibitory concentration of cAMP production (IC50) is defined by the value in terms of nM unit, of a 50% inhibitory concentration obtained by the above procedures, of a test compound against cAMP production with 10 nM melanocyte-stimulating hormone.
According to the method of measuring the 50% inhibitory concentration of cAMP production (IC50) explained in the above, IC50 was measured on the agents listed in following Table 2, i.e., D-1-Nal-Arg-LeuNH2, D-2-Nal-Arg-LeuNH2, L-1-Nal-Arg-LeuNH2 and D-Trp-Arg-LeuNH2.

Human melanocytes = assay: Test on suppression of the melanin formation caused by human melanocytes (MSH added); type: cell-based; conditions: for Melanin formation suppressing activity (evaluation class): class of minimum concentration showing melanin formation suppressing activity; for Suppression rate of the melanin formation: human melanocytes + MSH, 6th day
Protocol: Human melanocytes in logarithmic growth phase were treated with trypsin and inoculated to a 6-well plate with “Medium 154s” (manufactured by Kurabo Industries Ltd., containing a growth factor (HMGS)), in an amount of 1.5×10^5 per 1 well in terms of cell number. The cells were cultured at 37° C. in a carbon dioxide incubator, the CO2 concentration being 5%, for 1 day. Thereafter, rinsing was carried out with the use of HBS (Hepes Buffer Saline), followed by medium replacement with “MCDB153” (containing fetal bovine serum, insulin, b-FGF, transferrin, and tocopherol), and followed by culturing for further 2 days. A whitening agent (containing a compound to be tested) was prepared with “MCDB153” (containing fetal bovine serum, insulin, b-FGF, transferrin, and tocopherol)+melanocyte-stimulating hormone in such way that the concentration would be 200 μM, 20 μM, or 2 μM, and was added to the 6-well plate. Also, a further 6-well plate culture was carried out with the use of “MCDB153” (containing fetal bovine serum, insulin, b-FGF, transferrin, and tocopherol)+melanocyte-stimulating hormone without the whitening agent, and still further a 6-well plate culture was carried out with the use of “MCDB153” (containing fetal bovine serum, insulin, b-FGF, transferrin, and tocopherol) alone, at the same time. The medium replacement with the above “MCDB153” (containing fetal bovine serum) containing a whitening agent was carried out twice every 2 days.
After the first addition of the whitening agent, the effect of suppressing the melanin formation was confirmed on the 6th day. Namely, the medium on each 6-well plate was removed by suction, and the wells were rinsed with HBS. Thereafter, the 6-well plate was air-dried, and ⅕M NaOH (230 μl) was added to the wells to dissolve the melanin out of the melanocytes. The solution (200 μl) was evaluated by Abs (absorbance) on a microplate reader (475 nm). The suppression rate of the melanin formation by each compound tested was calculated according to the following equation (1). The suppression rate of the melanin formation(%)={1−(A1−A3)/(A2−A3)}×100 (1) • A1: absorbance at 475 nm when both of the compound to be tested and MSH were added. • A2: absorbance at 475 nm when the compound to be tested was not added and MSH was added. • A3: absorbance at 475 nm when both of the compound to be tested and MSH were not added.

[2] = Test of stability during storage (coloring of aqueous 0.1% solution, APHA method); type: physicochemical; conditions: for Degree of coloring (APHA Standard color): aqueous 0.1% solution stored at 4° C. for 6 months; for Stability during storage (evaluation class): class of degree of coloring, APHA standard colors
Protocol: An aqueous 0.1% solution of D-2-Nal-Arg-LeuNH2 of the present invention, and that of D-Trp-Arg-LeuNH2 which is a known melanocyte-stimulating hormone inhibitor were prepared and stored at 4° C. for 6 months, respectively. The stability during storage was evaluated by comparing the degree of coloring with standard colors of APHA (American Public Healthy Association) method.

[3] = B16 melanoma cells, 10 nM melanocyte-stimulating hormone, 5 min incubation, read-out: 50% inhibitory concentration (IC50) of cAMP production
[4] = class of 50% inhibitory concentration in the test, read-out: MSH inhibitory activity (evaluation class)

| Compound | Brown Guinea pig pigmentation suppressing test (evaluation) [1] | pIC50 (B16 melanoma cells; [3]) | pIC50 (B16 melanoma cells; [4]) | Melanin formation suppressing activity (evaluation class) (Human melanocytes) | Suppression rate of the melanin formation (Human melanocytes; concentration 2 μM) [%] | Suppression rate of the melanin formation (Human melanocytes; concentration 20 μM) [%] | Suppression rate of the melanin formation (Human melanocytes; concentration 200 μM) [%] | Degree of coloring (APHA Standard color) [2] [APHA] | Stability during storage (evaluation class) [2] |
| --- | --- | --- | --- | --- | --- | --- | --- | --- | --- |
| CC(C)C[C@H](NC(=O)[C@H](CCCNC(=N)N)NC(=O)[C@H](N)Cc1ccc2ccccc2c1)C(N)=O [D-2-Nal-Arg-LeuNH2] (H-[d2Nal]-Arg-Leu-NH2) | ◯ | 7.38 | ≥ 7.00 | A (1 to 10 μM) | 49 | 51 | 70 | 20 | A (20 or less) |
| CC(C)C[C@H](NC(=O)[C@H](CCCNC(=N)N)NC(=O)[C@@H](N)Cc1cccc2ccccc12)C(N)=O [L-1-Nal-Arg-LeuNH2] (H-[1Nal]-Arg-Leu-NH2) |  | 6.33 | 6.00 to 7.00 | B (11 to 100 μM) |  | 8 | 28 |  |  |
| CC(C)C[C@H](NC(=O)[C@H](CCCNC(=N)N)NC(=O)[C@H](N)Cc1cccc2ccccc12)C(N)=O [D-1-Nal-Arg-LeuNH2] (H-[d1Nal]-Arg-Leu-NH2) |  | 6.27 | 6.00 to 7.00 | B (11 to 100 μM) |  | 43 | 52 |  |  |
| CC(C)C[C@H](NC(=O)[C@H](CCCNC(=N)N)NC(=O)[C@H](N)Cc1c[nH]c2ccccc12)C(N)=O [D-Trp-Arg-LeuNH2, reference compound] (H-[dW]-Arg-Leu-NH2) | X | 6.64 | 6.00 to 7.00 | B (11 to 100 μM) |  | 24 | 57 | 200 | C (101 or more) |

Source: patent US7375085B1, “Melanocyte-stimulating hormone inhibitors” (Ajinomoto Co., Inc., priority 1999, dated 2008)
